Assay results from ChEMBL document CHEMBL5230107, “Anticancer boron-containing prodrugs responsive to oxidative stress from the tumor microenvironment” (Eur J Med Chem, 2020).
pIC50: −log10 of the molar value. One block for each compound: values may come before it.

How the values were obtained:
U-937 = experiment: Antiproliferative activity against human U-937 cells assessed as reduction in cell viability; type: functional
MV4-11 = experiment: Antiproliferative activity against human MV4-11 cells assessed as reduction in cell viability; type: functional
NIH3T3 [1] = experiment: Cytotoxicity against mouse NIH3T3 cells assessed as reduction in cell viability; type: functional, cell-based
4T1 [2] = experiment: Cytotoxicity against mouse 4T1 cells assessed as reduction in cell viability; type: functional, cell-based
4T1 [3] = experiment: Antitumor activity against mouse 4T1 cells implanted in mouse assessed as reduction in tumor volume at 37 mg/kg, iv; type: functional; design: scale not given: the % may be the effect or the level left
MCF7 [4] = experiment: Antitumor activity against human MCF7 cells xenografted in mouse assessed as tumor regression at 5 mg/kg, po; type: functional
NCI-H460 = experiment: Antiproliferative activity against human NCI-H460 cells assessed as growth inhibition at 10 uM relative to control; type: functional; design: scale not given: the % may be the effect or the level left
SR = experiment: Antiproliferative activity against human SR cells assessed as growth inhibition at 10 uM relative to control; type: functional; design: scale not given: the % may be the effect or the level left
DU-145 [5] = experiment: Antitumor activity against human DU-145 cells implanted in mouse assessed as reduction in tumor volume at 2 mg/kg, po; type: functional; design: scale not given: the % may be the effect or the level left
NIH3T3 [6] = experiment: Antiproliferative activity against mouse NIH3T3 cells assessed as reduction in cell viability; type: functional, cell-based
DU-145 [7] = experiment: Antiproliferative activity against human DU-145 cells assessed as reduction in cell viability; type: functional, cell-based
[8] = tested on: Panel NCI-60 (60 carcinoma cell lines); experiment: Cytotoxicity against human Panel NCI-60 (60 carcinoma cell lines); type: functional, cell-based
HL-60 = experiment: Cytotoxicity against human HL-60 cells assessed as inhibition of cell growth; type: functional, cell-based
MDA-MB-231 = experiment: Cytotoxicity against human MDA-MB-231 cells assessed as reduction in cell viability by Almar Blue stained fluorescence-based assay; type: functional
HeLa [9] = experiment: Cytotoxicity against human HeLa cells assessed as reduction in cell viability by Almar Blue stained fluorescence-based assay; type: functional
A549 = experiment: Cytotoxicity against human A549 cells assessed as reduction in cell viability by Almar Blue stained fluorescence-based assay; type: functional
NCI-H1993 = experiment: Cytotoxicity against human NCI-H1993 cells assessed as inhibition of cell growth; type: functional, cell-based
B16-F10 [10] = experiment: Antitumor activity against mouse B16-F10 cells implanted in mouse assessed as increase in survival time at 0.25 mg/kg, po; type: functional
HeLa [11] = experiment: Antiproliferative activity against human HeLa cells assessed as reduction in cell viability at 100 uM; type: functional
B16-F10 [12] = experiment: Antiproliferative activity against mouse B16-F10 cells assessed as reduction in cell viability at 100 uM; type: functional
HeLa [13] = experiment: Cytotoxicity against human HeLa cells assessed as inhibition of cell growth; type: functional, cell-based
[14] = Antiproliferative activity against human U-87 MG cells assessed as reduction in cell viability; type: functional, cell-based, U-87MG ATCC
MIA PaCa-2 = experiment: Cytotoxicity against human MIA PaCa-2 cells assessed as inhibition of cell growth measured after 72 hrs by MTS assay; type: functional, cell-based; conditions: MIA PaCa-2, 72 h
[15] = Antiproliferative activity against human Nasopharyngeal carcinoma cell line assessed as reduction in cell viability measured for 72 hrs by CCK-8 assay; type: functional, cell-based
PSN1 = experiment: Antiproliferative activity against human PSN1 cells assessed as reduction in cell viability measured for 72 hrs by CCK-8 assay; type: functional, cell-based; conditions: PSN1, 72 h
BXPC-3 = experiment: Antiproliferative activity against human BXPC-3 cells assessed as reduction in cell viability measured for 72 hrs by CCK-8 assay; type: functional, cell-based; conditions: BXPC-3, 72 h
[16] = Cytotoxicity against human MRC5 cells assessed as reduction in cell viability by Almar Blue stained fluorescence-based assay; type: toxicity
MCF7 [17] = experiment: Antitumor activity against human MCF7 cells xenografted in BALB/c nude mouse assessed as tumor growth inhibition at 10 mg/kg, iv; type: functional; conditions: read-out: TGI

Structure (SMILES): O=C(CCCCCCC(=O)Nc1ccccc1)NOCc1ccc(B(O)O)cc1
Activity (U-937): 20%
Activity (MV4-11): 20%

Structure (SMILES): CCN(CC)C(=S)SCc1ccc(B2OC(C)(C)C(C)(C)O2)cc1
pIC50 (NIH3T3 [1]): 5.22
pIC50 (4T1 [2]): 6.00
Activity (4T1 [3]): 80%

Structure (SMILES): COc1cccc2c1C(=O)c1c(O)c3c(c(O)c1C2=O)C[C@@](O)(C(=O)CO)C[C@@H]3O[C@H]1C[C@H](NC(=O)OCc2ccc(B3OC(C)(C)C(C)(C)O3)cc2)[C@H](O)[C@H](C)O1
Activity (MCF7 [4]): 30%

Structure (SMILES): CC1(C)OB(c2ccc(C[N+](C)(CCCl)CCCl)cc2)OC1(C)C.[Br-]
Activity (NCI-H460): 85%
Activity (SR): 85%

pIC50 (DU-145 [7]): 4.32
Structure (SMILES): CC1(COC(=O)OCc2ccc(B3OCCCO3)cc2)COC(/C=C/c2ccccc2)OC1 (centres undefined)
Activity (DU-145 [5]): 75%
pIC50 (NIH3T3 [6]): 3.74

Structure (SMILES): COc1cc(CBr)c(B2OC(C)(C)C(C)(C)O2)c(CBr)c1
pIC50 [8]: 5.00

Structure (SMILES): CN(Cc1cnc2nc(N)nc(NC(=O)OCc3ccc(B(O)O)cc3)c2n1)c1ccc(C(=O)N[C@H](CCC(=O)O)C(=O)O)cc1
pIC50 (HL-60): 7.30

Structure (SMILES): CCN(CC)/[N+]([O-])=N/OCc1cc2ccc(B3OC(C)(C)C(C)(C)O3)cc2oc1=O
pIC50 (MDA-MB-231): 5.00
pIC50 (HeLa [9]): 5.00
pIC50 (A549): 5.00

Structure (SMILES): C[C@@H](Oc1cc(-c2cnn(C3CCNCC3)c2)cnc1NC(=O)OCc1ccc(B(O)O)cc1)c1c(Cl)ccc(F)c1Cl
IC50 (NCI-H1993): 3000 nM

Structure (SMILES): CC[C@@]1(O)C(=O)OCc2c1cc1n(c2=O)Cc2cc3cc(OC(=O)OCc4cc5ccc(B(O)O)cc5oc4=O)ccc3nc2-1
Time (B16-F10 [10]): 1 days
Activity (HeLa [11]): 60%
Activity (B16-F10 [12]): 60%

Structure (SMILES): COc1cccc2c1C(=O)c1c(O)c3c(c(O)c1C2=O)C[C@@](O)(C(=O)CO)C[C@@H]3O[C@H]1C[C@H](NCC(=O)OCc2cc(C)cc(COC(=O)c3ccc(C(=C(c4ccccc4)c4ccccc4)c4ccccc4)cc3)c2OCc2ccc(B3OC(C)(C)C(C)(C)O3)cc2)[C@H](O)[C@H](C)O1
pIC50 (HeLa [13]): 5.70

Structure (SMILES): CC[C@@]1(O)C(=O)OCc2c1cc1n(c2=O)Cc2cc3ccccc3nc2-1 [CAMPTOTHECIN]
pIC50 [14]: 6.60

Structure (SMILES): C[C@@H](Oc1cc(-c2cnn(C3CCNCC3)c2)cnc1N)c1c(Cl)ccc(F)c1Cl [CRIZOTINIB]
pIC50 (NCI-H1993; Homo sapiens, NCI-H1993, read-out: IC50): 5.52

Structure (SMILES): COc1cccc2c1C(=O)c1c(O)c3c(c(O)c1C2=O)C[C@@](O)(C(=O)CO)C[C@@H]3O[C@H]1C[C@H](N)[C@H](O)[C@H](C)O1 [DOXORUBICIN]
pIC50 (MIA PaCa-2): 6.70
Activity (MCF7 [4]): 50%

pIC50 (BXPC-3): 8.30
Structure (SMILES): Nc1ccn([C@@H]2O[C@H](CO)[C@@H](O)C2(F)F)c(=O)n1 [GEMCITABINE]
pIC50 [15]: 8.30
pIC50 (PSN1): 8.30

Structure (SMILES): CC[C@@]1(O)C(=O)OCc2c1cc1n(c2=O)Cc2cc3cc(O)ccc3nc2-1 [HYDROXYCAMPTOTHECIN]
Activity (HeLa [11]): 60%
Activity (B16-F10 [12]): 60%

Structure (SMILES): CC(=O)O[C@H]1C(=O)[C@@]2(C)[C@H]([C@H](OC(=O)c3ccccc3)[C@]3(O)C[C@H](OC(=O)[C@H](O)[C@@H](NC(=O)c4ccccc4)c4ccccc4)C(C)=C1C3(C)C)[C@]1(OC(C)=O)CO[C@@H]1C[C@@H]2O [PACLITAXEL]
pIC50 [16]: 4.60
inhibition in vivo at 10 mg/kg (MCF7 [17]): 60%

Structure (SMILES): O=C(CCCCCCC(=O)Nc1ccccc1)NO [VORINOSTAT]
Activity (U-937): 20%
Activity (MV4-11): 20%
